The results in this text go back to ChEMBL document CHEMBL3856204, “Chiral 6-aryl-furo[2,3-d]pyrimidin-4-amines as EGFR inhibitors” (Eur J Med Chem, 2016).

For the experiment, the target named is Epidermal growth factor receptor (Homo sapiens, UniProt P00533). The experiment in a line: Inhibition of recombinant human GST-tagged EGFR cytoplasmic domain (668 to 1210 residues) expressed in baculovirus by Z'-LYTE assay.
Sequence of Epidermal growth factor receptor (P00533 whole entry, the tested form may be a part): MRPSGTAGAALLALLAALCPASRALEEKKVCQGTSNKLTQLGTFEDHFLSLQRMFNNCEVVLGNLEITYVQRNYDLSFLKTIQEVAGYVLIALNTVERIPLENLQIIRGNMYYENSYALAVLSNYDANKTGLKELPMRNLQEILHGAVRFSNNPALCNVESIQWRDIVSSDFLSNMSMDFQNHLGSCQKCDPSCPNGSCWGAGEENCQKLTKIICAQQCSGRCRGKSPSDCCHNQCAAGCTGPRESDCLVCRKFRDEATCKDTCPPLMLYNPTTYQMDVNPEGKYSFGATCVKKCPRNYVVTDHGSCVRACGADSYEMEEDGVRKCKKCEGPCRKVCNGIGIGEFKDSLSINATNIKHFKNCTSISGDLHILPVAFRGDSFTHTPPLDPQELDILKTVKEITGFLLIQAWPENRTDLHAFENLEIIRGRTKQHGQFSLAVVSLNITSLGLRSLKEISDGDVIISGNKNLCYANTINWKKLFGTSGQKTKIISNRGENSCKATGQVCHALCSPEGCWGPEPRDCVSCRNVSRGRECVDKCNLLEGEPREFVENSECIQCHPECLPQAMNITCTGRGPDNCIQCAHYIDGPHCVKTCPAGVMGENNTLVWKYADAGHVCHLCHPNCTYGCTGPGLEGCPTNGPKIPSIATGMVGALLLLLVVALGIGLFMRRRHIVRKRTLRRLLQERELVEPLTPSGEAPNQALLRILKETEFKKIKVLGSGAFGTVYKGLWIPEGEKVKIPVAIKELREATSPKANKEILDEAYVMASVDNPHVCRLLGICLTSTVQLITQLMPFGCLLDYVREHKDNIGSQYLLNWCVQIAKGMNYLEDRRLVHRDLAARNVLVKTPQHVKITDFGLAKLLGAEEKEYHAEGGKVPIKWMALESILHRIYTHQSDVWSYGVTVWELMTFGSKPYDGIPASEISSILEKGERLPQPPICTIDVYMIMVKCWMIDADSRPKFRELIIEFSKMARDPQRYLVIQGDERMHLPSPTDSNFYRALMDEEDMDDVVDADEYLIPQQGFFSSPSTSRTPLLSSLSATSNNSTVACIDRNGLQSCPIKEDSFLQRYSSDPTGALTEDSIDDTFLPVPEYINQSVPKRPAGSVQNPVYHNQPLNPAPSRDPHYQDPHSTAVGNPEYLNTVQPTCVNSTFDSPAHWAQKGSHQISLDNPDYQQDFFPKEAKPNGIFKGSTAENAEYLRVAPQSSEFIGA

On to `c1ccc(CNc2ncnc3oc(-c4ccccc4)cc23)cc1`, for which the IC50 was 93 nM.

Take `COc1ccc(-c2cc3c(N[C@H](C)C4CCCCC4)ncnc3o2)cc1`: the IC50 was over 100 nM.

With `COc1ccc(-c2cc3c(N[C@H](C)c4ccccc4)ncnc3o2)cc1`, the IC50 was 5.3 nM.

`COc1ccc(-c2cc3c(N[C@@H](C)c4ccccc4)ncnc3o2)cc1`: the IC50 is over 1000 nM.

Turning to `C[C@@H](Nc1ncnc2oc(-c3ccc(C#N)cc3)cc12)c1ccccc1`, the IC50 was found to be 44 nM.

As to `COc1ccc(-c2cc3c(NCc4ccccc4)ncnc3o2)cc1`, the IC50 came to 74 nM.

With `COc1ccc(-c2cc3c(N[C@H](C)c4cccc(F)c4)ncnc3o2)cc1`, the IC50 turned out to be 24 nM.

For the compound `COc1ccccc1-c1cc2c(N[C@H](C)c3ccccc3)ncnc2o1`, the IC50 was 4 nM.

`CC[C@@H](Nc1ncnc2oc(-c3ccc(OC)cc3)cc12)c1ccccc1`: the IC50 is 22 nM.

`COC[C@@H](Nc1ncnc2oc(-c3ccccc3)cc12)c1ccccc1`: the IC50 was found to be 28 nM.

On to `C[C@@H](Nc1ncnc2oc(-c3ccc(Br)cc3)cc12)c1ccccc1`, for which the 50% inhibitory concentration (IC50) was 56 nM.

With `COc1ccc(-c2cc3c(N[C@H](CCO)c4ccccc4)ncnc3o2)cc1`, the IC50 was 4 nM.

As to `C[C@@H](Nc1ncnc2oc(-c3ccc(NCCN4CCOCC4)cc3)cc12)c1ccccc1`, the IC50 was 1.1 nM.

Turning to `C=Cc1ccc(-c2cc3c(N[C@H](C)c4ccccc4)ncnc3o2)cc1`, the IC50 came out at 29 nM.

On to `COc1cccc(-c2cc3c(N[C@H](C)c4ccccc4)ncnc3o2)c1`, for which the IC50 worked out at 7 nM.

For the compound `C[C@@H](Nc1ncnc2oc(-c3ccc(F)cc3)cc12)c1ccccc1`, the IC50 came to 13 nM.

As for `COc1ccc(-c2cc3c(N[C@H](C)c4ccccc4F)ncnc3o2)cc1`, the IC50 was found to be 24 nM.

For `C[C@@H](Nc1ncnc2oc(-c3ccccc3)cc12)c1ccccc1`, the IC50 is 11 nM.

Take `C[C@@H](Nc1ncnc2oc(-c3cccc(O)c3)cc12)c1ccccc1`: the IC50 turned out to be 4.6 nM.

Consider `C[C@@H](Nc1ncnc2oc(-c3ccc(O)cc3)cc12)c1ccccc1`, for which the IC50 worked out at 1.5 nM.

Consider `COc1ccc(-c2cc3c(N[C@@H](C)CO)ncnc3o2)cc1`, for which the IC50 is over 100 nM.

Turning to `COc1ccc(-c2cc3c(NC(CC(N)=O)c4ccccc4)ncnc3o2)cc1` (racemic), the IC50 was determined as 22 nM.

Turning to `COc1ccc(-c2cc3c(N[C@H](C)c4ccc(F)cc4)ncnc3o2)cc1`, the IC50 is 27 nM.
